Holding throughout (assay): DTP human tumour cell line panel, 48 h
Assay [1] relates to SK-MEL-28.
The test system of assay [2] is HOP-92.
For assay [3], the system named is NCI-H226.
Assay [4] deals with HT-29.
Assay [5] deals with KM12.
In assay [6] the test system is Hs-578T.
Assay [7] concerns SF-295.
Assay [8] relates to RPMI-8226.
For assay [9], the system named is SK-MEL-5.
For assay [10], the system named is MDA-MB-231.
The subject of assay [11] is UO-31.
For assay [12], the system named is EKVX.
Assay [13] deals with SNB-19.
The test system of assay [14] is NCI-H23.
Assay [15] deals with HL-60.
For assay [16], the system named is U-251.
The test system of assay [17] is SF-539.
Assay [18] deals with SNB-75.
The subject of assay [19] is SK-MEL-2.

Here are results for 11 compounds from ChEMBL document CHEMBL1201862, “PubChem BioAssay data set” (2004).

The structures appear in SMILES notation.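 The compound was tested at five concentrations on cells cultured in 96-well plates, with a 48-hour exposure period. Here, GI50 denotes the concentration required for 50% inhibition of growth.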 The source made the active and inactive calls. Rule as the data show it: active = GI50 up to about 1.1 µM and inactive = higher.

By GI50 is commonly meant the concentration giving 50% growth inhibition.

In the case of `S=C(Nc1ccc2c(c1)Cc1ccccc1-2)Nc1ccc2c(c1)Cc1ccccc1-2`, the GI50 in [1] is > 100 µM (inactive); in [2], 80.7 µM (inactive); in assay [3] it was > 100 µM (inactive); in assay [4], > 100 µM (inactive); in [5] it was > 100 µM (inactive); in assay [6], > 100 µM (inactive). Further, the GI50 in assay [7], in assay [8], in [9], in [10], in assay [11] and in assay [12] was > 100 µM (inactive) in each case. In addition, the GI50 in assay [13] was > 100 µM (inactive); in assay [14], > 100 µM (inactive); in [15] it was 7.08 µM (inactive); in assay [16] it was > 100 µM (inactive).

With `c1ccc(CCCNc2nnnc3ccccc23)cc1`, the GI50 in assay [1] is > 100 µM (inactive); in assay [2] it was > 100 µM (inactive); in assay [3], > 100 µM (inactive); in assay [4], > 100 µM (inactive); in assay [5], > 100 µM (inactive); in assay [6] it was 34.8 µM (inactive). The GI50 is 57 µM (inactive) in [17]; > 100 µM (inactive) in assay [18]; 44.2 µM (inactive) in assay [7]; 35.8 µM (inactive) in assay [8]; 32.4 µM (inactive) in [9]; > 100 µM (inactive) in assay [10]. Also, the GI50 in assay [12] is 70.1 µM (inactive); in assay [19], > 100 µM (inactive); in [13] it was > 100 µM (inactive); in assay [14] it was 70.3 µM (inactive); in assay [15], > 100 µM (inactive); in assay [16], > 100 µM (inactive).

For the compound `O=[N+]([O-])c1cccnc1-n1cnc2ccccc21`, the GI50 in assay [1], in assay [2], in assay [3], in assay [4], in [5] and in [6] was > 100 µM (inactive) in each case. Besides, the GI50 in [17], in assay [18], in assay [7], in assay [8], in assay [9] and in assay [10] was > 100 µM (inactive) throughout. In addition, the GI50 in assay [12] is > 100 µM (inactive); in assay [19], > 100 µM (inactive); in [15], 48 µM (inactive); in assay [16], > 100 µM (inactive).

Turning to `COC(=O)C(CCSC)NC(=O)Cc1ccc(C(=O)c2ccccc2)cc1` (stereo not drawn), the GI50 in assay [1] was > 100 µM (inactive); in assay [2] it was 41.8 µM (inactive); in assay [3], 78.5 µM (inactive); in [4], 25.8 µM (inactive); in assay [5] it was 25.9 µM (inactive); in assay [6], 33.1 µM (inactive). Moreover, the GI50 in [18] is 40.6 µM (inactive); in assay [7], 42.5 µM (inactive); in assay [8], 46.5 µM (inactive); in assay [9], 32.5 µM (inactive); in [10], 37.3 µM (inactive); in assay [11], 53.7 µM (inactive). Also, the GI50 in assay [12] was 39.2 µM (inactive); in assay [19], 48.6 µM (inactive); in assay [13], 82.6 µM (inactive); in assay [14], 44.8 µM (inactive); in [15] it was 32.7 µM (inactive); in assay [16] it was 34.6 µM (inactive).

As for `O=C(CC(=O)Nc1ccccc1)NNC(c1cc(/N=N/c2ccc(Br)cc2)ccc1O)P(O)O` (stereo not drawn), the GI50 in [1] is 4.45 µM (inactive); in assay [2], 4.18 µM (inactive); in assay [3] it was 1.57 µM (inactive); in assay [4], > 10 µM (inactive); in assay [5] it was 1.81 µM (inactive); in [6] it was > 10 µM (inactive). Moreover, the GI50 in assay [17] was 2.12 µM (inactive); in [18], 2.32 µM (inactive); in assay [7], 3.64 µM (inactive); in assay [8] it was 1.86 µM (inactive); in assay [9] it was 1.53 µM (inactive); in assay [10], 2.73 µM (inactive). For the same compound, the GI50 in assay [11] is 2.52 µM (inactive); in assay [19], > 10 µM (inactive); in [13], > 10 µM (inactive); in assay [14] it was 3.28 µM (inactive); in assay [15], 0.291 µM (active); in [16], 3.51 µM (inactive).

As for `COc1ccc2c3c([nH]c2c1)CCN(Cc1ccccc1)C3`, the GI50 in assay [1] was 18.8 µM (inactive); in assay [2] it was 4.35 µM (inactive); in assay [3] it was 22.3 µM (inactive); in [4] it was 27.2 µM (inactive); in assay [5], 22 µM (inactive); in [6], 24.6 µM (inactive). Further, the GI50 in assay [17] is 16.1 µM (inactive); in assay [18] it was 37.3 µM (inactive); in assay [7], 11.5 µM (inactive); in assay [8] it was 22.8 µM (inactive); in assay [9], 17 µM (inactive); in assay [10] it was 28.9 µM (inactive). For the same compound, the GI50 in assay [11] was 12.4 µM (inactive); in assay [12], 42.8 µM (inactive); in assay [13] it was 21.4 µM (inactive); in assay [14], 42.3 µM (inactive); in assay [15], 17.5 µM (inactive); in [16], 22.5 µM (inactive).

With `C1CCN2CC3CCCN4CCCC(C2C1)C34` (stereo not drawn), the GI50 in [1], in assay [2], in [3], in assay [4], in assay [5] and in [6] was > 100 µM (inactive) each time. For the same compound, the GI50 in assay [17] is > 100 µM (inactive); in [18], 50.1 µM (inactive); in assay [7], > 100 µM (inactive); in assay [8] it was > 100 µM (inactive); in assay [9], > 100 µM (inactive); in assay [10], > 100 µM (inactive). Moreover, the GI50 in [12], in [19], in assay [13], in assay [14], in assay [15] and in assay [16] was > 100 µM (inactive) throughout.

Consider `CN(C)CCNC(=O)c1nc([N+](=O)[O-])cn1C`, for which the GI50 in [1], in assay [2], in [4], in assay [5], in assay [6] and in assay [17] was > 100 µM (inactive) in each case. For the same compound, the GI50 in assay [18], in assay [7], in [8], in assay [9], in assay [10] and in [11] was > 100 µM (inactive) throughout. Also, the GI50 in assay [19], in [13], in assay [14], in assay [15] and in [16] was > 100 µM (inactive) each time.

Turning to `Cc1nc(C(N)=S)sc1C(=O)CC(=O)C(=O)Nc1nc2ccccc2[nH]1`, the GI50 in [1] is > 100 µM (inactive); in assay [2] it was 69.5 µM (inactive); in assay [3], 11.5 µM (inactive); in assay [4], > 100 µM (inactive); in assay [5], > 100 µM (inactive); in [6], > 100 µM (inactive). Moreover, the GI50 in assay [17], in assay [18], in assay [7], in [8], in [9] and in assay [10] was > 100 µM (inactive) throughout. Also, the GI50 is > 100 µM (inactive) in assay [11]; > 100 µM (inactive) in assay [12]; > 100 µM (inactive) in assay [19]; > 100 µM (inactive) in assay [14]; 46.8 µM (inactive) in assay [15]; > 100 µM (inactive) in assay [16].

Take `O=S(=O)(O)c1cc(S(=O)(=O)O)c2c(/N=N/c3ccc(S(=O)(=O)O)c4ccccc34)c(O)ccc2c1`: the GI50 in assay [1], in [2], in [3], in assay [4], in [5] and in assay [6] was > 100 µM (inactive) throughout. The GI50 in assay [18], in assay [7], in assay [8], in assay [9], in assay [10] and in [11] was > 100 µM (inactive) throughout. Further, the GI50 in assay [12], in assay [19], in assay [13], in [14], in assay [15] and in assay [16] was > 100 µM (inactive) in each case.

For the compound `NNS(=O)(=O)c1cc(C(=O)O)cc(C(=O)O)c1`, the GI50 in assay [1] is > 100 µM (inactive); in [2], > 100 µM (inactive); in assay [3], > 100 µM (inactive); in [4], > 100 µM (inactive); in assay [5], > 100 µM (inactive); in [6] it was 1.09 µM (active). In addition, the GI50 in assay [17], in [7], in [8], in assay [9], in [10] and in assay [11] was > 100 µM (inactive) each time. Also, the GI50 in assay [12], in assay [19], in [13], in assay [14], in [15] and in assay [16] was > 100 µM (inactive) throughout.
